From US8957140B2, “Triazine derivative, ultraviolet absorber, and resin composition” (FUJIFILM Corporation, priority 2009, dated 2015)

Test: Light resistance of PMMA polymer film (residual amount after metal halide lamp irradiation)
Assay type: physicochemical
Details: 0.2 mass % compound in PMMA film, 50-μm thick; metal halide lamp (about 290 nm or less cut), 90 mW/cm^2, 63° C., humidity 50%, irradiation for 600 hours; absorbance at maximum absorption wavelength
Protocol: A binder solution was prepared by dissolving 22 mass % of a PMMA resin (“DIANAL BR-80”, trade name, produced by Mitsubishi Rayon Co., Ltd.) in methylene chloride. […] The coating solution was applied on glass as a base material by means of a 200 μm blade and dried at 100° C. for 10 minutes to form a 50-μm thick coating, whereby a film was produced. […] The residual amount was calculated according to the following formula: Residual amount (%)=100×(absorbance after irradiation)/(absorbance before irradiation)
Incidentally, the absorbance is a value measured at the maximum absorption wavelength of each compound.

Row | SMILES | Residual Amount (%)
1 | CCCCCCCCOc1ccc(-c2nc(-c3ccc(C)cc3C)nc(-c3ccc(C)cc3C)n2)c(O)c1 [Comparative Compound B] | 14
2 | CCCCCCOc1ccc(-c2nc(-c3ccccc3)nc(-c3ccccc3)n2)c(O)c1 [Comparative Compound A] | 44
